Data reported in the supplement of paper PMC13380429.

Key:
Conditions in all cases: 72 h
U2OS [1] = assay: relative viability EC50 (midpoint between 100% and the lowest measured viability); higher = less toxic
Vero E6 [2] = assay: as above
Calu-3 [3] = assay: as above
U2OS [4] = assay: cell viability relative to DMSO; higher = less toxic
Caco-2 [5] = assay: as above
Vero E6 [6] = assay: as above
HepG2 [7] = assay: as above
Calu-3 [8] = assay: as above
U2OS [9] = assay: drug sensitivity score (DSS) for viability; higher = more toxic; extreme values may be limits of the assay
Caco-2 [10] = assay: as above
Vero E6 [11] = assay: as above
HepG2 [12] = assay: as above
Calu-3 [13] = assay: as above
HepG2 [14] = assay: relative viability EC50 (midpoint between 100% and the lowest measured viability); higher = less toxic

| SMILES | relative viability EC50 (U2OS [1]) [µM] | relative viability EC50 (Vero E6 [2]) [µM] | relative viability EC50 (Calu-3 [3]) [µM] | cell viability (U2OS [4]; 1 nM) [%] | cell viability (U2OS [4]; 10 nM) [%] | cell viability (U2OS [4]; 100 nM) [%] | cell viability (U2OS [4]; 1000 nM) [%] | cell viability (U2OS [4]; 10000 nM) [%] | cell viability (Caco-2 [5]; 1 nM) [%] | cell viability (Caco-2 [5]; 10 nM) [%] | cell viability (Caco-2 [5]; 100 nM) [%] | cell viability (Caco-2 [5]; 1000 nM) [%] | cell viability (Caco-2 [5]; 10000 nM) [%] | cell viability (Vero E6 [6]; 1 nM) [%] | cell viability (Vero E6 [6]; 10 nM) [%] | cell viability (Vero E6 [6]; 100 nM) [%] | cell viability (Vero E6 [6]; 1000 nM) [%] | cell viability (Vero E6 [6]; 10000 nM) [%] | cell viability (HepG2 [7]; 1 nM) [%] | cell viability (HepG2 [7]; 10 nM) [%] | cell viability (HepG2 [7]; 100 nM) [%] | cell viability (HepG2 [7]; 1000 nM) [%] | cell viability (HepG2 [7]; 10000 nM) [%] | cell viability (Calu-3 [8]; 1 nM) [%] | cell viability (Calu-3 [8]; 10 nM) [%] | cell viability (Calu-3 [8]; 100 nM) [%] | cell viability (Calu-3 [8]; 1000 nM) [%] | cell viability (Calu-3 [8]; 10000 nM) [%] | drug sensitivity score (U2OS [9]) | drug sensitivity score (Caco-2 [10]) | drug sensitivity score (Vero E6 [11]) | drug sensitivity score (HepG2 [12]) | drug sensitivity score (Calu-3 [13]) | relative viability EC50 (HepG2 [14]) [µM] |
| --- | --- | --- | --- | --- | --- | --- | --- | --- | --- | --- | --- | --- | --- | --- | --- | --- | --- | --- | --- | --- | --- | --- | --- | --- | --- | --- | --- | --- | --- | --- | --- | --- | --- | --- |
| CC(C)c1noc(N2CCC(COc3ccc(-c4ccc(S(C)(=O)=O)cc4)nc3)CC2)n1 | > 10 | > 10 | > 10 | 99.3 | 94.1 | 97.6 | 100 | 101 | 92.5 | 93.5 | 101 | 95.6 | 72.5 | 98 | 100 | 98.8 | 89.3 | 103 | 97.1 | 106 | 109 | 97.3 | 50.9 | 96.4 | 101 | 92.4 | 94.4 | 106 | 0 | 1.8 | 0 | 2.9 | 0 |  |
| CCn1c(-c2nonc2N)nc2c(C#CC(C)(C)O)ncc(OC[C@H]3CCCNC3)c21 | > 10 | > 10 |  | 96.3 | 93.3 | 98.1 | 87.5 | 85.9 | 92.9 | 86.7 | 101 | 72.1 | 69.3 | 96.5 | 96 | 95.5 | 95.1 | 111 | 94.8 | 98.1 | 96.5 | 94.5 | 99.4 | 102 | 98.2 | 92.2 | 69.5 | 73.5 | 0.3 | 4.7 | 0 | 0 | 6.3 | > 10 |
| COc1ccc(CCCO[C@@H](Cn2ccnc2)c2ccc(OC)cc2)cc1 | 3.1 |  |  | 97.4 | 96.7 | 99.3 | 99.4 | 35.9 | 93.4 | 95 | 100 | 93.5 | 52.6 | 94.5 | 104 | 96.5 | 98 | 50.1 | 101 | 104 | 95.4 | 106 | 34 |  |  |  |  |  | 3.6 | 3.6 | 2.9 | 3.2 |  | 3.59 |
| Cc1cc(I)ccc1Nc1c(C(=O)NOCC2CC2)cc(F)c(F)c1F |  |  | 1.26 | 100 | 97.1 | 99.8 | 89.6 | 74.7 | 93.3 | 99.5 | 98.3 | 75 | 54.8 | 89.6 | 100 | 90.4 | 77 | 52.6 | 88.7 | 107 | 94 | 55.5 | 21.1 | 97.2 | 100 | 103 | 80.3 | 45.1 | 2.3 | 5.2 | 5.2 | 9.7 | 5.7 | 0.814 |
| C[C@@H]1CCCN1CCc1cc2cc(-c3ccc(C#N)cc3)ccc2o1 [ABT-239] | > 10 | > 10 |  | 96.3 | 101 | 97.9 | 102 | 87 | 86.8 | 106 | 93.4 | 97.2 | 68.1 | 89.8 | 94.9 | 92 | 91.2 | 91.8 | 105 | 92.9 | 94.8 | 90.9 | 75.9 | 95.5 | 96.1 | 106 | 111 | 58.9 | 0.1 | 1.9 | 0 | 1.4 | 1.5 | > 10 |
| COc1ccc(C(=O)c2c(C)n(CCN3CCOCC3)c3cc(I)ccc23)cc1 [AM-630] | > 10 | > 10 | > 10 | 96.2 | 101 | 97.2 | 98.5 | 94.1 | 97.3 | 113 | 81.1 | 94.2 | 69.7 | 97.8 | 96.5 | 102 | 100 | 97 | 93.3 | 82.5 | 104 | 94.3 | 91.6 | 92.9 | 102 | 104 | 102 | 92.9 | 0 | 2.1 | 0 | 0 | 0 | > 10 |
| Cc1[nH]nc(C(F)(F)F)c1Cc1sc2c(c1C(=O)N1C[C@](C)(O)CO1)c(=O)n(C)c(=O)n2C(C)C [AZD3965] | > 10 | > 10 | > 10 | 99.8 | 95.3 | 89 | 92 | 89.2 | 92.9 | 79.5 | 74.9 | 72 | 76.5 | 99.8 | 97.5 | 101 | 92.9 | 97.4 | 99.4 | 89.2 | 99.3 | 93.3 | 101 | 93.6 | 101 | 101 | 103 | 107 | 0.6 | 10.1 | 0 | 0 | 0 | > 10 |
| CCC[C@@H]1C[C@@H](C(=O)N[C@@H]([C@H]2O[C@H](SC)[C@H](OP(=O)(O)O)[C@@H](O)[C@H]2O)[C@H](C)Cl)N(C)C1 [Clindamycin phosphate] |  |  |  |  |  |  |  |  |  |  |  |  |  |  |  |  |  |  |  |  |  |  |  |  |  |  |  |  | 0 |  | 0 | 0 | 0 |  |
| OC[C@H]1O[C@H](O[C@H]2[C@H](O)[C@@H](O)[C@H](O)O[C@@H]2CO)[C@H](O)[C@@H](O)[C@@H]1O [D-(+)-maltose] |  |  |  |  |  |  |  |  |  |  |  |  |  |  |  |  |  |  |  |  |  |  |  |  |  |  |  |  | 0 |  | 0 | 0 |  |  |
| N[C@H](CO)C(=O)O [D-serine] |  |  |  |  |  |  |  |  |  |  |  |  |  |  |  |  |  |  |  |  |  |  |  |  |  |  |  |  | 0 |  | 0 | 0 | 0 |  |
| Cc1cc(Nc2ncnc3ccc(-c4ccc(CNCCS(C)(=O)=O)o4)cc23)ccc1Oc1ccn2ncnc2c1 [HER2-Inhibitor-1] | > 10 | > 10 | 0.124 | 98.2 | 95.2 | 100 | 91.9 | 87.9 | 102 | 88.5 | 94.8 | 88.4 | 52.7 | 105 | 106 | 105 | 93.7 | 94.2 | 98.4 | 102 | 95.8 | 89.1 | 88.8 | 122 | 88.4 | 66.1 | 45.5 | 30.5 | 0.4 | 4.2 | 0 | 0.4 | 15 | > 10 |
| CCNC(=O)C[C@@H]1N=C(c2ccc(Cl)cc2)c2cc(OC)ccc2-n2c(C)nnc21 [I-BET-762] | 1.69 | 1.04 |  | 94.7 | 101 | 90 | 87.9 | 47.8 | 94.8 | 100 | 88.6 | 91.3 | 72.8 | 98.1 | 104 | 104 | 59.9 | 15.9 | 111 | 112 | 98.8 | 64.9 | 50.2 | 104 | 116 | 104 | 93.7 | 60.8 | 4.5 | 2 | 9.8 | 6.9 | 3 |  |
| C=CC(=O)c1ccc2ccccc2c1 [JAK3-inhibitor-V] |  | > 10 | > 10 |  |  |  |  |  |  |  |  |  |  | 99.5 | 107 | 99.8 | 104 | 101 | 106 | 108 | 98.8 | 110 | 110 | 110 | 97.3 | 111 | 94.8 | 96.6 |  |  | 0 | 0 | 0 | > 10 |
| N#Cc1c(N)nc(SCc2ncc[nH]2)c(C#N)c1-c1ccc(O)cc1 [LUF-5834] |  |  |  |  |  |  |  |  |  |  |  |  |  |  |  |  |  |  | 102 | 115 | 103 | 105 | 98.6 |  |  |  |  |  |  |  |  | 0 |  | > 10 |
| CC1(N)CCN(c2cnc(-c3cccc(Cl)c3Cl)c(N)n2)CC1 [SHP099] | > 10 | > 10 |  | 93.8 | 95.4 | 91.9 | 98.4 | 90.2 | 94.1 | 113 | 90.9 | 91.9 | 56.4 | 103 | 93.2 | 106 | 92.2 | 78.9 | 91.2 | 84.8 | 103 | 93.5 | 82 | 101 | 98.3 | 104 | 82.2 | 64.7 | 0 | 3.6 | 1.6 | 0.2 | 3.9 | > 10 |
| CC(C)Oc1ccc(-c2nn([C@@H](C)c3oc4ccc(F)cc4c(=O)c3-c3cccc(F)c3)c3ncnc(N)c23)cc1F [TGR-1202] |  |  |  |  |  |  |  |  |  |  |  |  |  |  |  |  |  |  | 101 | 108 | 108 | 111 | 98.2 |  |  |  |  |  |  |  |  | 0 |  | > 10 |
| NC12CC3CC(CC(C3)C1)C2 [amantadine] |  |  |  |  |  |  |  |  |  |  |  |  |  |  |  |  |  |  |  |  |  |  |  |  |  |  |  |  | 0 |  | 0 | 0 | 0 |  |
| N=C(N)NC(=O)c1nc(Cl)c(N)nc1N [amiloride] |  |  |  |  |  |  |  |  |  |  |  |  |  |  |  |  |  |  |  |  |  |  |  |  |  |  |  |  | 0 |  | 0 | 0 | 0 |  |
| CCC[C@H]1C(=O)N2C(N(C)C)=Nc3ccc(C)cc3N2C1=O [azapropazone] |  |  |  |  |  |  |  |  |  |  |  |  |  |  |  |  |  |  |  |  |  |  |  |  |  |  |  |  | 0 |  | 0 | 0 | 0 |  |
| OCCNC1CCCc2c1[nH]c1ccc(-c3ccccc3)cc21 (stereo not drawn) [casin] | > 10 | > 10 |  | 107 | 102 | 105 | 102 | 79 | 106 | 97.4 | 99.4 | 96.3 | 69.8 | 102 | 106 | 106 | 98.9 | 77.7 | 94.7 | 97.6 | 87.5 | 94.7 | 52.4 | 96.3 | 97.4 | 97.1 | 106 | 69.1 | 0.5 | 1.9 | 0.9 | 3.4 | 1.1 |  |
| N.N.[Cl][Pt][Cl] [cisplatin] |  |  |  |  |  |  |  |  |  |  |  |  |  |  |  |  |  |  |  |  |  |  |  |  |  |  |  |  | 0 |  | 0 | 0 | 0.2 |  |
